According to patent US20250120927A1, “CNDP2 MODULATORS AND METHODS FOR THEIR USE” (Metabolon Inc., priority 2023, published 2025):
Counter-ions that a name gives are not always drawn.

target: CNDP2 (Homo sapiens (Human), UniProt Q96KP4); experiment: CNDP2 enzyme inhibition assay (Met-His hydrolysis, free histidine by o-phthaldialdehyde fluorescence), dose-response; format: biochemical; details: 50 nM purified CNDP2 (Sino Biological), 1 mM Met-His substrate, 30 minutes at 37° C.; TABLE 1
Procedure: To identify optimal conditions for identifying novel inhibitors of CNDP2, enzyme assays were performed with varied sources of purified enzyme, concentrations of enzyme, peptide substrates, concentrations of peptide substrates and metal cofactors. […] The reaction mixture was incubated for 30 minutes at 37° C. before it was quenched with an equal volume of 1% TCA. Free histidine was quantified after derivatization with a fluorophore (o-phthaldialdehyde from Sigma-Aldrich, excitation 340 nm, emission 460 nm). The reaction was conducted in an automation-friendly format to meet future screening throughput demands. A histidine titration standard curve was also included to enable conversion of fluorescence signal to molar concentration of histidine released by the hydrolysis reaction and to ensure the linearity of the fluorescence signal vs. free histidine.
Compounds of Formula (I) disclosed herein were screened for potency in inhibiting CNDP2 enzyme activity in a dose-response experiment. Bestatin was included with each batch of test molecules as a benchmark for assay quality control.

Sequence of CNDP2 (Q96KP4 whole entry): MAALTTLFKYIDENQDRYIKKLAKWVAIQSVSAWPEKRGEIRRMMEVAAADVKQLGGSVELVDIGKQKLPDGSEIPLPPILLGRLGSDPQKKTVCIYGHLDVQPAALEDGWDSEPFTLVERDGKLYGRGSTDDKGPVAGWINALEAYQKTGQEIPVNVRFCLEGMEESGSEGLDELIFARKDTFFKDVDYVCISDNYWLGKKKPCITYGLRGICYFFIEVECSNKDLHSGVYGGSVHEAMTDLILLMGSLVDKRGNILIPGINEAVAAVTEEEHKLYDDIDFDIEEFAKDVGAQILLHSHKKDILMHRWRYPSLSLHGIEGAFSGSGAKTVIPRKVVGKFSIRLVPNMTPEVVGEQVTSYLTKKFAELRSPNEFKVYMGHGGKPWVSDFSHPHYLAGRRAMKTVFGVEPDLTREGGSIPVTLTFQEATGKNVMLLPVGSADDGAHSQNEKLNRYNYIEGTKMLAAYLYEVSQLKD

| Compound | IC50 |
| --- | --- |
| N[C@H](Cc1ccccc1)[C@H](O)C(=O)NC(Cc1ccc(C(F)(F)F)cc1)C(=O)O (stereo partly drawn) [Compound 16, 2-[[(2S,3R)-3-amino-2-hydroxy-4-phenyl-butanoyl]amino]-3-[4-(trifluoromethyl)phenyl]propanoic acid] | 100 to 1000 nM |
| N[C@H](Cc1ccccc1)[C@H](O)C(=O)NC(C(=O)O)c1ccccc1 (stereo partly drawn) [Compound 3, 2-[[(2S,3R)-3-amino-2-hydroxy-4-phenyl-butanoyl]amino]-2-phenyl-acetic acid] | ≥ 1000 nM |
| N[C@H](Cc1ccccc1)[C@H](O)C(=O)N[C@@H](C(=O)O)c1cccc(C(F)(F)F)c1 [Compound 35] | ≥ 1000 nM |
| N[C@H](Cc1ccccc1)[C@H](O)C(=O)N[C@H](C(=O)O)c1cccc(C(F)(F)F)c1 [Compound 36] | < 100 nM |
| N[C@H](Cc1ccccc1)[C@H](O)C(=O)N[C@@H](Cc1cccc(Br)c1)C(=O)O [Compound 33] | ≥ 1000 nM |
| N[C@H](Cc1ccccc1)[C@H](O)C(=O)N[C@@H](Cc1ccccc1Br)C(=O)O [Compound 26, 2-[[(2S,3R)-3-amino-2-hydroxy-4-phenyl-butanoyl]amino]-3-(2-bromophenyl)propanoic acid] | ≥ 1000 nM |
| N[C@H](Cc1ccccc1)[C@H](O)C(=O)N[C@H](C(=O)O)c1cccc(OC(F)(F)F)c1 [Compound 31, (S)-2-((2S,3R)-3-amino-2-hydroxy-4-phenylbutanamido)-2-(3-(trifluoromethoxy)phenyl)acetic acid] | < 100 nM |
| N[C@H](Cc1ccccc1)[C@H](O)C(=O)N[C@H](C(=O)NO)c1cccc(OC(F)(F)F)c1 [Compound 52] | ≥ 1000 nM |
| CC(C)C[C@H](NC(=O)[C@@H](O)[C@H](N)Cc1ccccc1Br)C(=O)O [Compound 40] | ≥ 1000 nM |
| N[C@H](Cc1ccccc1)[C@H](O)C(=O)N[C@H](C(=O)O)C1CCC(F)(F)CC1 [Compound 34] | 100 to 1000 nM |
| CS(=O)(=O)NC(=O)C(NC(=O)[C@@H](O)[C@H](N)Cc1ccccc1)c1cccc(C(F)(F)F)c1 (some centres unmarked) [Compound 55] | ≥ 1000 nM |
| N[C@H](Cc1ccccc1)[C@H](O)C(=O)NC(C(=O)O)c1cccc(C(F)(F)F)c1 (stereo partly drawn) [Compound 10, 2-[[(2S,3R)-3-amino-2-hydroxy-4-phenyl-butanoyl]amino]-2-[3-(trifluoromethyl)phenyl]acetic acid] | < 100 nM |
| CC(C)C[C@H](NC(=O)[C@@H](O)[C@H](N)Cc1ccc(Br)cc1)C(=O)O [Compound 39] | ≥ 1000 nM |

Next, values leading:

| IC50 | Compound |
| --- | --- |
| ≥ 1000 nM | NC(Cc1cccc(OC(F)(F)F)c1)C(O)C(=O)N[C@H](C(=O)O)c1cccc(OC(F)(F)F)c1 (some centres unmarked) [Compound 57] |
| ≥ 1000 nM | N[C@H](Cc1ccccc1)[C@H](O)C(=O)NC(c1cccc(C(F)(F)F)c1)c1nnn[nH]1 (some centres unmarked) [Compound 43] |
| < 100 nM | N[C@H](Cc1ccccc1)[C@H](O)C(=O)NC(c1cccc(C(F)(F)F)c1)c1n[nH]c(=O)o1 (some centres unmarked) [Compound 56] |
| < 100 nM | N[C@H](Cc1ccc(Cl)cc1)[C@H](O)C(=O)N[C@H](C(=O)O)c1cccc(C(F)(F)F)c1 [Compound 49] |
| ≥ 1000 nM | N[C@H](Cc1ccccc1)[C@H](O)C(=O)NC(CC1CC(F)(F)C1)C(=O)O (stereo partly drawn) [Compound 22, 2-[[(2S,3R)-3-amino-2-hydroxy-4-phenyl-butanoyl]amino]-3-(3,3-difluorocyclobutyl)propanoic acid] |
| ≥ 1000 nM | N[C@H](Cc1ccccc1)[C@H](O)C(=O)N[C@H](C(=O)O)C1CCOCC1 [Compound 21, 2-[[(2S,3R)-3-amino-2-hydroxy-4-phenyl-butanoyl]amino]-2-tetrahydropyran-4-yl-acetic acid] |
| ≥ 1000 nM | NC(=O)[C@@H](NC(=O)[C@@H](O)[C@H](N)Cc1ccccc1)c1cccc(OC(F)(F)F)c1 [Compound 44] |
| ≥ 1000 nM | N[C@H](Cc1ccccc1)[C@H](O)C(=O)NC(C(=O)O)c1ccccc1C(F)(F)F (some centres unmarked) [Compound 27] |
| ≥ 1000 nM | N[C@H](Cc1ccccc1)[C@H](O)C(=O)N[C@H](C(=O)O)C1CCC1 [Compound 20, (2S)-2-[[(2S,3R)-3-amino-2-hydroxy-4-phenyl-butanoyl]amino]-2-cyclobutyl-acetic acid] |
| ≥ 1000 nM | N[C@H](Cc1ccccc1)[C@H](O)C(=O)N[C@@H](Cc1ccccc1C(F)(F)F)C(=O)O [Compound 11, 2-[[(2S,3R)-3-amino-2-hydroxy-4-phenyl-butanoyl]amino]-3-[2-(trifluoromethyl)phenyl]propanoic acid] |
| 100 to 1000 nM | N[C@H](Cc1ccccc1)[C@H](O)C(=O)N[C@H](C(=O)NO)c1cccc(OC(F)(F)F)c1 [Compound 53] |

same assay, conditions: 50 nM purified CNDP2 (Sino Biological), 1 mM Met-His substrate, 30 minutes at 37° C.; TABLE 2

| Compound | IC50 |
| --- | --- |
| N[C@H](Cc1ccccc1)[C@H](O)C(=O)N[C@H](C(=O)O)c1ccc(F)c(OC(F)(F)F)c1F [Compound 114, (S)-2-((2S,3R)-3-amino-2-hydroxy-4-phenylbutanamido)-2-(2,4-difluoro-3-(trifluoromethoxy)phenyl)acetic acid hydrochloride] | < 100 nM |
| N[C@H](Cc1ccccc1)[C@H](O)C(=O)N[C@@H](Cc1ccc(F)c(OC(F)(F)F)c1)C(=O)O [Compound 99] | ≥ 1000 nM |
| N[C@H](Cc1ccccc1)[C@H](O)C(=O)N[C@H](C(=O)O)c1cc(F)cc(OC(F)(F)F)c1 [Compound 103, (S)-2-((2S,3R)-3-amino-2-hydroxy-4-phenylbutanamido)-2-(3-fluoro-5-(trifluoromethoxy)phenyl)acetic acid] | < 100 nM |
| N[C@H](Cc1ccccc1)[C@H](O)C(=O)N[C@H](C(=O)O)c1ccc(F)c(C(F)(F)F)c1F [Compound 97, (S)-2-((2S,3R)-3-amino-2-hydroxy-4-phenylbutanamido)-2-(2,4-difluoro-3-(trifluoromethyl)phenyl)acetic acid] | 100 to 1000 nM |
| N[C@H](Cc1ccccc1)[C@H](O)C(=O)N[C@H](C(=O)O)c1cc(Cl)cc(OC(F)(F)F)c1 [Compound 109, (S)-2-((2S,3R)-3-amino-2-hydroxy-4-phenylbutanamido)-2-(3-chloro-5-(trifluoromethoxy)phenyl)acetic acid hydrochloride] | < 100 nM |
| N[C@H](Cc1ccccc1)[C@H](O)C(=O)N[C@H](C(=O)O)c1ccc(Br)c(OC(F)(F)F)c1 [Compound 111, (S)-2-((2S,3R)-3-amino-2-hydroxy-4-phenylbutanamido)-2-(4-bromo-3-(trifluoromethoxy)phenyl)acetic acid hydrochloride] | < 100 nM |
| N[C@H](Cc1ccccc1)[C@H](O)C(=O)N[C@@H](C(=O)O)c1ccc(Br)c(OC(F)(F)F)c1 [Compound 110, (R)-2-((2S,3R)-3-amino-2-hydroxy-4-phenylbutanamido)-2-(4-bromo-3-(trifluoromethoxy)phenyl)acetic acid hydrochloride] | ≥ 1000 nM |
| N[C@H](Cc1ccccc1)[C@H](O)C(=O)N[C@H](C(=O)O)c1ccc(Cl)c(OC(F)(F)F)c1 [Compound 107, (S)-2-((2S,3R)-3-amino-2-hydroxy-4-phenylbutanamido)-2-(4-chloro-3-(trifluoromethoxy)phenyl)acetic acid hydrochloride] | < 100 nM |
| N[C@H](Cc1ccccc1)[C@H](O)C(=O)N[C@@H](Cc1cc(F)c(OC(F)(F)F)c(F)c1)C(=O)O [Compound 98] | 100 to 1000 nM |
| N[C@H](Cc1ccccc1)[C@H](O)C(=O)N[C@@H](CN1CCC(F)(F)C1)C(=O)O [Compound 83] | ≥ 1000 nM |
| N[C@H](Cc1ccc(C(F)(F)F)cc1)[C@H](O)C(=O)N[C@@H](C(=O)O)c1cccc(OC(F)(F)F)c1 [Compound 132, (R)-2-((2S,3R)-3-amino-2-hydroxy-4-(4-(trifluoromethyl)phenyl)butanamido)-2-(3-(trifluoromethoxy)phenyl)acetic acid] | 100 to 1000 nM |
| N[C@H](Cc1ccccc1)[C@H](O)C(=O)N[C@H](c1cccc(OC(F)(F)F)c1)c1n[nH]c(=O)o1 [Compound 74] | ≥ 1000 nM |

The remaining lines, values ahead:

| IC50 | Compound |
| --- | --- |
| ≥ 1000 nM | N[C@H](Cc1ccccc1)[C@H](O)C(=O)NC(C(=O)O)c1cc(C(F)(F)F)ccc1F (some centres unmarked) [Compound 67] |
| ≥ 1000 nM | N[C@H](Cc1ccccc1)[C@H](O)C(=O)N[C@@H](CC1CCC(F)(F)CC1)c1n[nH]c(=O)o1 [Compound 101] |
| < 100 nM | N[C@H](Cc1ccccc1)[C@H](O)C(=O)N[C@@H](C(=O)O)c1ccc(F)c(C(F)(F)F)c1 [Compound 94, (R)-2-((2S,3R)-3-amino-2-hydroxy-4-phenylbutanamido)-2-(4-fluoro-3-(trifluoromethyl)phenyl)acetic acid] |
| ≥ 1000 nM | N[C@H](Cc1ccc(Br)cc1)[C@H](O)C(=O)N[C@H](C(=O)O)c1cccc(OC(F)(F)F)c1 [Compound 129, (S)-2-((2S,3R)-3-amino-4-(4-bromophenyl)-2-hydroxybutanamido)-2-(3-(trifluoromethoxy)phenyl)acetic acid] |
| ≥ 1000 nM | N[C@H](Cc1ccccc1)[C@H](O)C(=O)N[C@@H](C(=O)O)c1cccc(C(F)(F)F)c1Cl [Compound 86, (R)-2-((2S,3R)-3-amino-2-hydroxy-4-phenylbutanamido)-2-(2-chloro-3-(trifluoromethyl)phenyl)acetic acid] |
| ≥ 1000 nM | C[C@](NC(=O)[C@@H](O)[C@H](N)Cc1ccccc1)(C(=O)O)c1cccc(C(F)(F)F)c1 [Compound 84, (R)-2-((2S,3R)-3-amino-2-hydroxy-4-phenylbutanamido)-2-(3-(trifluoromethyl)phenyl)propanoic acid] |
| < 100 nM | N[C@H](Cc1ccccc1)[C@H](O)C(=O)NC(C(=O)O)c1cccc(OC(F)F)c1 (some centres unmarked) [Compound 65] |
| 100 to 1000 nM | N[C@H](Cc1ccccc1)[C@H](O)C(=O)N[C@@H](Cc1ccc(C(F)(F)F)c(Cl)c1)C(=O)O [Compound 100] |
